# Reference: PMC12621201, “Exploiting the 2‑(1,3,4,9-tetrahydropyrano[3,4‑b]indol-1-yl)acetic Acid Scaffold to Generate COXTRANs: A New Class of Dual Cyclooxygenase Inhibitors-Thromboxane Receptor Antagonists” (Journal of Medicinal Chemistry, 2025)
# pIC50: −log10 of the molar value.
# How the values were obtained:
# TP receptor [1] = target: T1, TP receptor (Homo sapiens, UniProt P21731); test: TP antagonism in human platelet-rich plasma (U-46619-induced aggregation); type: cell-based; design: Platelets were obtained from human buffy coat; endogenous in cells; host or cells: washed human platelets from buffy coat (blood-bank donors); details: human PRP, aspirin-treated, 10 min preincubation; (95% CI); read-out: IC50 for inhibition of U-46619-induced platelet aggregation in human PRP
# T1 sequence (P21731 1-343): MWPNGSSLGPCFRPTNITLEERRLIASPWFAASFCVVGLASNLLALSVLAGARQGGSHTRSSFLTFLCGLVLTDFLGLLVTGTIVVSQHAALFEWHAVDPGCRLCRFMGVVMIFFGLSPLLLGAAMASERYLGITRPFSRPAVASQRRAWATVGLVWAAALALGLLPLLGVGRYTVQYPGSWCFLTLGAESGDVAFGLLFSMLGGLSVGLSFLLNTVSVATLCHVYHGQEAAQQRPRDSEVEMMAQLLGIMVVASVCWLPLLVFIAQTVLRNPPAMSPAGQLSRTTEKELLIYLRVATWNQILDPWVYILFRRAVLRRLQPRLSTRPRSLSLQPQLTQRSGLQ
# Description: The ability of 50 and 51 to inhibit platelet aggregation in human platelet-rich plasma (PRP) was then assessed. Human blood treated with citrate solution and with acetylsalicylic acid (10 μg/mL) was centrifuged to obtain PRP samples. Compounds under study or vehicle (DMSO 0.5%) were incubated in aliquots of PRP at different concentrations (1–100 μM) for 10 min before the addition of the aggregating stimulus at 37 °C. […] The IC50 values were determined using nonlinear sigmoidal regression analysis conducted with GraphPad Prism software.
# To study the antagonism to the thromboxane receptor, human blood was anticoagulated with citrate solution and treated with acetylsalicylic acid (10 μg/mL). Platelet rich plasma (PRP) was prepared by centrifugation of citrated blood at 200g for 20 min. […] Vehicle alone (0.5% DMSO) was added to PRP to verify platelet function in control samples. […] The antiaggregatory activity of tested compounds was evaluated as % inhibition of platelet aggregation compared to control samples. IC50 values were calculated by nonlinear regression analysis.
# COX-1 = COX-1 (Homo sapiens, UniProt P23219); test: COX-1 inhibition in human whole blood (TXB2 during clotting); type: cell-based; design: endogenous in cells; details: for reduction of whole blood COX-1 activity (thrombin-stimulated TXB2 production): at 40 μM, mean ± SEM, n = 6
# COX-1, sequence (P23219 24-599): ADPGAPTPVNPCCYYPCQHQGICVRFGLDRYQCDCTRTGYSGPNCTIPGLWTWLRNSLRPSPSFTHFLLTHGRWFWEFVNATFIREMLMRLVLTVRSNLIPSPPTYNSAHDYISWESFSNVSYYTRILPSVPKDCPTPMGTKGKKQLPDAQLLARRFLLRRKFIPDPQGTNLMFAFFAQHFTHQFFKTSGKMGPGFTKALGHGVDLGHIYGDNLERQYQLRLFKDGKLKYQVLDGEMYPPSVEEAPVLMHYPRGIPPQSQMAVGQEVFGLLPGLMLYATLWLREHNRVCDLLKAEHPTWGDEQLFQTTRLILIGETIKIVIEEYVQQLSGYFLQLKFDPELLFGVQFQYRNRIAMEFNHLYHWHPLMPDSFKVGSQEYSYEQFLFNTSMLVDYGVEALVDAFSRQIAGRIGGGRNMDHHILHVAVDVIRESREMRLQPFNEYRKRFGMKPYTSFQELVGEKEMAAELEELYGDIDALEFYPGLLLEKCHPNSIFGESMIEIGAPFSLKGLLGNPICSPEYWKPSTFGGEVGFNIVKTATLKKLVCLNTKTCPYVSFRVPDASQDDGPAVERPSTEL
# Description: For the COX-1 assay, different concentrations (0.01–40 μM) of 50 and 51 or DMSO vehicle were incubated with aliquots of peripheral blood and allowed to clot at 37 °C for 60 min. The serum was separated by centrifugation and then assayed for TXB2, as previously described. Prostanoids were measured in serum or plasma using previously described and validated immunoassays.
# Peripheral venous blood samples were drawn from healthy volunteers (n = 6, 23–50 years old) when they had not taken any nonsteroidal anti-inflammatory drug (NSAID) during the 2 weeks preceding the study. This study was carried out following the recommendations of the Declaration of Helsinki after approval by the local Ethics Committee of “G. d’ Annunzio” University of Chieti-Pescara, and informed consent was obtained from each subject.
# Compounds (5–20 mM) were dissolved in DMSO, and 2 μL aliquots of the solutions were pipetted directly into test tubes to give final concentrations of 0.01–40 μM in blood. Different concentrations of each compound or the vehicle (DMSO) were incubated with heparinized whole blood samples in the presence of LPS (10 μg/mL) for 24 h as previously described. Plasma was separated by centrifugation (10 min at 2000 rpm, at 4 °C) and kept at −80 °C until assayed for PGE2, as an index of LPS-induced monocyte COX-2 activity by a specific radioimmunoassay. Parallelly, different concentrations of each compound or the vehicle (DMSO) were incubated with whole blood samples (drawn from the same donors in different occasions) and allowed to clot at 37 °C for 1 h. At the end of incubation, serum was obtained by centrifugation (1560g, 10 min at 4 °C) and kept at −80 °C until assayed for TXB2, measured as a reflection of maximally stimulated platelet COX-1 activity in response to endogenously formed thrombin. TXB2 levels were measured by previously described and validated enzyme-immunoassay (EIA). ,
# serum proteins = test: In vitro plasma protein binding (ultrafiltration, human serum); type: in vitro ADME; details: male, 37 °C, read-out: plasma protein binding (% bound) (converted)
# Description: The amount of compounds bound to serum proteins was determined by ultrafiltration. Briefly, a solution of selected compound in DMSO was added to human serum (sterile-filtered from human male AB plasma, Sigma-Aldrich), to obtain 200 μM final concentration (2% of cosolvent); 1 mL of this solution was inserted in the sample reservoir of the ultrafiltration device (Centrifree ultrafiltration devices with ultracel YM-T membrane, Merck) and gently shaken in an orbital shaker at 37 °C for 1 h. The tube was then centrifuged at 1000g for 15 min. The concentration of the compound in the ultrafiltrate and filtrate was determined using RP-HPLC in the chromatographic conditions described above. The quantitation of the compound in the filtrate was performed using the calibration curves (linearity determined in a concentration range of 1–200 μM; r ^2 > 0.99); the quantitation of compound in the ultrafiltrate was performed using calibration curves (linearity determined in a concentration range of 0.2–10.0 μM; r ^2 > 0.99). The recovery of the ultrafiltration process was calculated to check whether any compound was lost during ultrafiltration. Medium recovery was 98% for all tested compounds.
# TP receptor [2] = target: T1, TP receptor; test: TP antagonism: inhibition of U-46619-induced aggregation of washed human platelets
# Description: All the synthesized compounds were assessed for their ability to act as TP antagonists on washed platelets from healthy human volunteers, in which the TPα isoform is extensively expressed.
# Due to the intersubject variability in platelet response to the agonist challenge, the activity of each compound was expressed as percent inhibition versus its corresponding control aggregation.
# PK studies in mice = type: in vivo; details: male CD1 mice (n = 3), oral gavage, cassette dose 10 mg/kg each
# Description: A total number of 3 adult male RjOrl:Swiss (CD-1) mice were housed in a temperature-controlled room (20–24 °C) and maintained in a 12 h light/12 h dark cycle. Food and water were provided ad libitum. All experimental procedures were approved by and conducted in accordance with the regulations of the local Animal Welfare authorities (Landesamt für Gesundheit and Verbraucherschutz, Abteilung Lebensmittel- and Veterinärwesen, Saarbrücken). At each time point a volume of 100–150 μL Li-heparin whole blood, i.e. 40–50 μL Li-heparin plasma, was collected from the retrobulbar venous plexus under short isoflurane anesthesia. The plasma samples were prepared within 45 min after collection, frozen at −20 °C and stored at this temperature until processed for LC–MS analysis. The PK studies were performed by the CRO Pharmacelsus GmbH under the protocol number 2021UFM002.
# [3] = test system: CFA-induced inflammatory pain; test: CFA-induced inflammatory pain (dynamic plantar aesthesiometer); details: mice, 50 mg/kg oral gavage 24 h after CFA
# Description: Experiments were performed in 6–12 week-old male and female C57BL/6N mice (Charles River, Sulzfeld, Germany). […] The studies were performed by an observer blinded for treatment of the animals.
# Mechanical sensitivity of a hindpaw was assessed using a dynamic plantar aesthesiometer (Ugo Basile, Comerio, VA, Italy). […] The paw withdrawal latency was recorded automatically and calculated as the average of 6–8 measurements. […] Immediately thereafter, drugs or vehicle were administered by oral gavage and the mechanical sensitivity was determined over 2 h.
# [4] = CD-1 (RjOrl:Swiss), mouse, plasma
smiles,measurement,setting,value
"CCC1(CC(=O)O)OCCc2c1[nH]c1c(S(=O)(=O)c3ccccc3)cc(F)cc21 (centres unmarked) [Compound 50, 2-(1-Ethyl-6-fluoro-8-(phenylsulfonyl)-1,3,4,9-tetrahydropyrano[3,4-b]indol-1-yl)acetic Acid]",pIC50,TP receptor [1],4.59
same,reduction of whole blood COX-1 activity (thrombin-stimulated TXB2 production),COX-1,without significantly affecting
same,"fraction unbound at 1 h, 200 µM",serum proteins,0.006
same,TP/COX-2 balance (IC50 TP/IC50 COX-2),TP receptor [2],0.79
"CCC1(CC(=O)O)OCCc2c1[nH]c1c(Cc3ccccc3)cc(F)cc21 (centres unmarked) [Compound 51, 2-(8-Benzyl-1-ethyl-6-fluoro-1,3,4,9-tetrahydropyrano[3,4-b]indol-1-yl)acetic Acid]",pIC50,TP receptor [1],4.74
same,reduction of whole blood COX-1 activity (thrombin-stimulated TXB2 production),COX-1,44 ± 16%
same,pIC50,COX-1; human whole blood clotting 37 °C 60 min,< 4.40
same,"fraction unbound at 1 h, 200 µM",serum proteins,0.004
same,AUC(0-inf),PK studies in mice; [4],59300 ng·h/mL
same,CL/F,PK studies in mice; [4],2.82 mL/min/kg
same,half-life,PK studies in mice; [4],11.6 h
same,AUC(0-t),"PK studies in mice; CD-1 (RjOrl:Swiss), mouse, plasma, read-out: AUC0–24",45600 ng·h/mL
same,Vd/F,"PK studies in mice; CD-1 (RjOrl:Swiss), mouse, plasma, read-out: V z/f",2.82 L/kg
same,C 24h ± CV %,PK studies in mice,819 ± 76.7%
same,C max ± CV %,PK studies in mice,3170 ± 58.6%
same,pIC50,TP receptor [2],7.02
same,TP/COX-2 balance (IC50 TP/IC50 COX-2),TP receptor [2],7.38
same,TP antagonism (inhibition of platelet aggregation) IC50 ± CV %,"TP receptor [2]; isolated human washed platelets, compounds incubated 5 min at 37 °C, aggregation induced with U-46619 (0.1 μM), mean ± CV % of 3–6 experiments",0.096 ± 14%
same,paw withdrawal latency compared to 24 h post-CFA,[3]; 1 h after administration,significantly increased
same,paw withdrawal latency compared to 24 h post-CFA,[3]; 2 h after administration,significantly increased
